Data taken from patent US11992011B2, “Compounds for controlling plant pathogens” (VIB VZW, priority 2017, dated 2024).

Assays:
[1] = tested on: Fusarium proliferatum (isolate Fpr18); assay: Onion seedling emergence with PA seed coating, Fusarium proliferatum (Example 12); type: in vivo; settings: onion seeds with 300 μM PA coating vs mock coating
Method: (§1) Seed coatings were applied by dipping seeds in a coating solution containing 20 g/I high viscosity carboxymethylcellulose (Sigma-Aldrich, Saint Louis, USA) in distilled water as well as 300 μM of the target compound. Seeds were then dried overnight at room temperature.
(§2) Onion seeds were coated with a 300 μM PA solution as outlined in the chemical treatments section. F. oxysporum (isolate Foc26), F. solani (isolate Fso18) and F. proliferatum (isolate Fpr18) were originally extracted from Vietnamese onion fields. Inoculum was obtained as described in the fungal culture section. The inoculum was diluted to a concentration of 1.0×10^7 spores per ml with sterile PBS buffer. The coated seeds were then soaked in the spore solution for one hour. To avoid excessive PA leaching from the PA coating, 100 μM of PA was added to the spore solution.
(§3) After soaking in the PA solution, seeds were left to dry for thirty minutes. Twenty seeds were then sowed per pot in potting soil; three pots were used per treatment and per fungal isolate (for a total of 60 seeds per treatment-isolate combination). The pots were covered in cling film and left on a window sill at room temperature. After eight and ten days, the number of germinated seedlings per pot was counted.
(§4) Germination experiments were analyzed by fitting a three-parameter log-logistic model as implemented in the R drc package.

OsGH3.1 = assay: qRT-PCR in rice roots, OsGH3.1 (Example 20); type: in vivo, Oryza sativa; settings: rice cv. Bomba root tissue; same samples as Example 19
Method: After quality control, qPCR was carried out.
To test whether other defense hormones might be involved, genes responsive to jasmonic acid (the biosynthesis gene OsAOS2) and auxin (the auxin conjugating enzyme OsGH3.1) were investigated. Moreover, the callose-degrading enzyme OsGNS5, downregulation of which is associated with basal defense, was also investigated. The qRT-PCR analysis was performed on the same samples used in the previous Example.

[2] = tested on: J2 juveniles of Meloidogyne graminicola; assay: In vitro nematode toxicity assay, M. graminicola J2 (Example 11); settings: Vertimec 0.02 v/v % abamectin
Method: J2 juveniles of Meloidogyne graminicola and Heterodera schachtii were isolated from Echinocloa cruss-galli roots and sugar beet roots respectively. Per treatment and species combination, 300 nematodes were isolated and divided over six wells that contained 1.5 ml of either sterilized tap water, a 100 μM C4H inhibitor solution or a 0.02 v/v % solution of the nematicide abamectin (Vertimec®, Syngenta AG). The nematodes were incubated in the dark on a slow-moving rotary shaker (50 rpm) and the number of living nematodes was counted regularly using a binocular microscope.
To rule out definitively that the compounds of the invention operate through direct toxicity to nematodes, an in vitro toxicity assay on J2 juveniles of the nematodes Meloidogyne graminicola and Heterodera schachtii was performed.
First, survival upon exposure to the C4H inhibitor piperonylic acid (PA) was compared to a negative control (tap water) and a positive control, the commercial nematicide Vertimec (0.02% Abamectin). A detailed survival curve is shown in FIG. 12a (M. graminicola) and FIG. 12b (H. schachtii).
In a second experiment, a broader range of C4H inhibitors were assayed in the same manner. The toxicity of piperonylic acid (PA), piperine (PIP), 4-propynyloxybenzoic acid (4PB), and 3-(4-pyridyl)acrylic acid (3PA) to J2 juveniles of Meloidogyne graminicola was compared to a negative control (tap water) and a true nematicide (Vertimec, active ingredient abamectin).

[3] = tested on: Arabidopsis thaliana seedlings; assay: Primary root elongation of Arabidopsis thaliana seedlings (IC50-root); type: in vivo; settings: continuous exposure, unpublished data
[4] = tested on: Alternaria solani, Botrytis cinerea R16, Fusarium graminearum PH1 and Fusarium graminearum GFP; type: cell-based
[5] = tested on: Fusarium oxysporum (isolate Foc26); assay: Onion seedling emergence with PA seed coating, Fusarium oxysporum (Example 12); type: in vivo; settings: onion seeds with 300 μM PA coating vs mock coating
Method: as §1, §2, §3, §4

wheat = assay: Phytotoxicity of foliar spray in uninfected wheat (Example 1); type: in vivo, Triticum aestivum; settings: 500 μM foliar spray, 8 plants per treatment
Method: For Examples 1, 5 and 10, seeds of the winter wheat cultivar Sahara (Aveve Agrarisch, Landen, Belgium) were used. Seeds were washed in a 10% ethanol solution to remove any residual traces of fungicide and then germinated on wet paper at room temperature for four days; seeds were transferred to SAP tubes and placed in a growth chamber (25° C., 16 hours per day of light). Plants were watered with 8 ml of half-strength Hoagland solution every two days for the first ten days and with 8 ml of full strength Hoagland solution every two days afterwards.
Unless otherwise mentioned, all chemicals for nematode experiments were applied as a foliar spray consisting of the target compound at a concentration of 300 μM together with 0.1% (v/v) Tween 20 surfactant (Calbiochem) in distilled water. Again unless otherwise mentioned, all treatments for the nematode experiments were carried out three times: one and eight days before pathogen inoculation and seven days after pathogen inoculation. In all cases, plants were sprayed until run-off with an atomizer.
Short-term phytotoxicity experiments (Example 1) were analyzed using non-parametric methods. For each variable, overall significance was determined using the Kruskal-Wallis test (Kruskal and Wallis, 1952), followed by a posthoc Conover-Iman test (Conover and Iman, 1981) with Hommel multiplicity correction (Hommel, 1988) if the Kruskal-Wallis test was significant. When only two groups were present, the Wilcoxon-Mann-Whitney test was used (Mann and Whitney, 1947).
To test whether C4H inhibitors induce phytotoxic effects in crops, uninfected tomato, wheat and carrot were treated with piperonylic acid (PA), 4-iodobenzoic acid (4-IBA) and piperic acid (PIA) at a concentration of 500 μM through foliar application. At harvest, leaf area (or shoot length in the case of wheat) and primary root length were recorded. The BBCH developmental stage (Lancashire et al., 1991), a measure of developmental retardation, was used to test for effects on development. Finally, the presence of visible signs of phytotoxicity such as chlorosis, discoloration or necrosis was recorded.

Meloidogyne incognita = assay: M. incognita infection in DIECA-treated tomato (Example 18); type: in vivo; settings: PA together with DIECA
Method: Infection experiments with M. incognita were performed in the same manner as those with M. graminicola, except that plants were harvested 31 days after inoculation instead of 14 days. At this point, the plants were phenotyped by measuring the root length with a ruler and in some experiments by measuring leaf area using the EasyLeafArea software (Easlon and Bloom, 2014) and by determining shoot dry mass after 72 hours of drying in an oven at 70° C. Galls were stained and counted as described above.
To determine whether C4H inhibitors depend on this hormonal pathway, it was tested whether tomato plants treated with the chemical inhibitor of jasmonic acid biosynthesis diethyldithiocarbamate (DIECA) (Farmer et al., 1994) still responded to PA treatment.

[6] = tested on: Fusarium solani (isolate Fso18); assay: Onion seedling emergence with PA seed coating, Fusarium solani (Example 12); type: in vivo; settings: onion seeds with 300 μM PA coating vs mock coating
Method: as §1, §2, §3, §4

O=C(O)c1ccc2c(c1)OCO2 [PA, Piperonylic acid]
improvement of seedling emergence [1]: +79%
Fold change vs. control, OsGH3.1 expression (OsGH3.1): 1.21
survival after 24 hours of exposure ([2]; PA 100 μM, control 94.2±2.4): 97.1±1.8%
survival at the end of the experiment ([2]; second experiment, C4H inhibitor 100 μM, water control 93%): 95%
IC50 [3]: 40 µM
germination of fungal spores on agar [4]: germinated normally
mycelium growth compared to control agar [4]: slight (species-specific) growth retardation
improvement of seedling emergence [5]: +42%
Root length (wheat; mean ± standard deviation): 15.75 ± 2.64 cm
Shoot length (wheat; mean ± standard deviation): 31.75 ± 2.84 cm
BBCH stage (wheat; median ± interquartile range): 13 ± 0
change of number of galls, plants treated with both PA and DIECA vs untreated wild type plants (Meloidogyne incognita): −31%
difference in number of galls, plants treated with both PA and DIECA vs PA-treated wild type plants (Meloidogyne incognita; not significant): +14%
improvement of seedling emergence [6]: +27%
